Laboratory results as given in article PMC10030565, “Ubiquitous occurrence of a dimethylsulfoniopropionate ABC transporter in abundant marine bacteria” (The ISME Journal, 2023).

Legend:
RnDmpX Tyr200Phe mutant = assay: ITC titration of DMSP into RnDmpX Tyr200Phe mutant; type: binding, Roseovarius nubinhibens ISM; details: Tyr200 mutated to Phe
Description: (§1) The genes encoding SBPs from R. pomeroyi DSS-3 or R. nubinhibens ISM were amplified from the genome of R. pomeroyi DSS-3 or R. nubinhibens ISM by PCR using FastPfu DNA polymerase (TransGen Biotech, China). The dmpX homologue from P. sp. strain HTCC7211 (locus tag HTCC7211_00013840) was synthesized by the Beijing Genomics Institute (China). The related genes were then cloned into the NdeI/XhoI restriction sites of the pET-22b vector (Novagen, Germany) with a C-terminal His tag. Point mutations in DmpX were introduced using the PCR-based method and verified by DNA sequencing. The SBPs and corresponding mutant forms were produced in E. coli BL21 (DE3). The cells were cultured in the LB medium with 0.1 mg/ml ampicillin at 37 °C to an OD600 of 0.8–1.0 and then induced at 18 °C for 16 h with 0.5 mM isopropyl-β-D-thiogalactopyranoside (IPTG). After induction, cells were collected by centrifugation, resuspended in the lysis buffer (50 mM Tris-HCl, 100 mM NaCl, 0.5% glycerol, pH 8.0), and lysed by a pressure crusher. The proteins were first purified by affinity chromatography on a Ni^2+-NTA column (GE Healthcare, US), and then fractionated by gel filtration on a Superdex G75 column (GE healthcare, US).
(§2) Isothermal titration calorimetry (ITC) measurements were performed at 25 °C using a MicroCal iTC200 system (GE Healthcare, US) or MicroCal PEAQ-ITC system (Malvern Panalytical, UK). […]

[1] = system: TmoX (encoded by SPO1548); parameters: method as in PMID 24550299, PMID 26283766; details: cited from earlier work
SBP encoded by SPOA0231 = assay: ITC titration of DMSP into recombinant SBP encoded by SPOA0231; type: binding, Ruegeria pomeroyi DSS-3
Description: as §1, §2

RnDmpX Tyr200Ala mutant = assay: ITC titration of DMSP into RnDmpX Tyr200Ala mutant; type: binding, Roseovarius nubinhibens ISM; details: Tyr200 mutated to Ala
Description: as §1, §2

[2] = target: DmpX (SBP encoded by SPO2441) (Ruegeria pomeroyi, UniProt Q5LQP7); assay: biochemical; type: binding, Ruegeria pomeroyi DSS-3; parameters: key to Dissociation constant (Kd): -: not detectable; details: ITC; for binding affinity (in words): DMSP analogues compared to DMSP; for Dissociation constant (Kd): dash = not detectable
Chain of DmpX (SBP encoded by SPO2441) (Q5LQP7 entry or part of it): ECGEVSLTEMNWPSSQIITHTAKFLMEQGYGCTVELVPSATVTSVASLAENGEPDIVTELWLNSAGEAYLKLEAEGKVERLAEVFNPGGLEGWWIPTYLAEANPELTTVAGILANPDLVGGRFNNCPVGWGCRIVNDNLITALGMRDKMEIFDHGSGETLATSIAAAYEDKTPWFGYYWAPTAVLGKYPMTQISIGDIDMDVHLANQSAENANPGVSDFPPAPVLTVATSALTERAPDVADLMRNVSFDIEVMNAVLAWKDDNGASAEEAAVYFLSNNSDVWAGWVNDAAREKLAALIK
Description: as §1
(§3) Isothermal titration calorimetry (ITC) measurements were performed at 25 °C using a MicroCal iTC200 system (GE Healthcare, US) or MicroCal PEAQ-ITC system (Malvern Panalytical, UK). The sample cell was loaded with 280 μl of protein sample (30–100 μM), and the reference cell contained distilled water. The syringe was filled with 40 μl of substrates (100 μM–1 mM). The proteins and substrates were kept in the same buffer containing 10 mM Tris-HCl (pH 8.0) and 100 mM NaCl.

SBP encoded by SPO1131 = assay: ITC titration of DMSP into recombinant SBP encoded by SPO1131; type: binding, Ruegeria pomeroyi DSS-3
Description: as §1, §2

RnDmpX = RnDmpX (Roseovarius nubinhibens, UniProt A3SME7); assay: ITC titration of DMSP into recombinant RnDmpX; type: binding, Roseovarius nubinhibens ISM
Chain of RnDmpX (A3SME7 entry or part of it): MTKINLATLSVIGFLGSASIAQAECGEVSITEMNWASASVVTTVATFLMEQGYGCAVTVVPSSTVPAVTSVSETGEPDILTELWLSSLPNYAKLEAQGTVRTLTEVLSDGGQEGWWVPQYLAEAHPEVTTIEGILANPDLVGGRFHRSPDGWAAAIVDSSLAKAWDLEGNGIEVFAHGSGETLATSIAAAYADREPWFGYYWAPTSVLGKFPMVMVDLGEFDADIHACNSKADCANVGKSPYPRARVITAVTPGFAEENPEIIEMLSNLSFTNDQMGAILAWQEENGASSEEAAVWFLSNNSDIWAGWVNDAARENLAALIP
Description: as §1, §2

DmpX^7211 = DmpX^7211 (Candidatus Pelagibacter sp. HTCC7211, UniProt B6BQI1); assay: ITC titration of substrates into recombinant DmpX^7211; type: binding; parameters: key: -: not detectable; details: dash = not detectable
Chain of DmpX^7211 (B6BQI1 27-337 limits assumed): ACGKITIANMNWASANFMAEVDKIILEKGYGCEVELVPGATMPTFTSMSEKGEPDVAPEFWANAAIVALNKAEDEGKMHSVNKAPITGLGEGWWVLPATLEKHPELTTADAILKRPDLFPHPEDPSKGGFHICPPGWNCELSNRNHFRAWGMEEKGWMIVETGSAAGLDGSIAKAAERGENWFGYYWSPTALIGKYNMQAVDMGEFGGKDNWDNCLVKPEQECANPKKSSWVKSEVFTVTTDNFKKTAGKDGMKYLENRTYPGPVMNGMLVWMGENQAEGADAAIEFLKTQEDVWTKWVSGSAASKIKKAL
Description: as §1, §3

[3] = system: R. pomeroyi DSS-3 complemented mutant ΔdmpXWV::Gm; assay: Uptake of 14C-labeled DMSP, complemented ΔdmpXWV::Gm mutant; type: cell-based, Ruegeria pomeroyi DSS-3; details: for Uptake rate: complemented mutant ΔdmpXWV::Gm, 5 min, 30 °C, mean ± S.D. n = 3
Description: To create the ΔdmpXWV knockout mutant regions of homology at the 5′ and 3′ ends of dmpXWV were amplified, alongside the gentamicin cassette from the p34s-Gm plasmid. Amplified DNA fragments were assembled into linearised pk18mobsacB using the HiFi assembly kit (New England Biolabs) according to the manufacturer’s instructions. To construct the complementation plasmid, dmpXWV was cloned into linearised pBBR1McS-km using the HiFi assembly kit. Plasmids were electroporated into competent Escherichia coli S17.1 λpir and conjugated into R. pomeroyi DSS-3. The knockout mutant was selected onto minimal media plates containing gentamicin (10 µg/ml), with resultant colonies screened for kanamycin resistance. Kanamycin-sensitive clones were PCR screened and products sequenced to confirm a double crossover. The complemented mutant strain was selected on MB plates containing gentamicin (10 µg/ml) and kanamycin (80 µg/ml), and colonies confirmed by PCR screening and sequencing.
(§4) Triplicates of 1 µl ^14C:^12C-DMSP in 3 ml scintillation fluid (EcoLume Liquid Scintillation Cocktail, MP Biomedical, US) were measured on a liquid scintillation analyzer (Tri-Carb 2800TR, Perkin Elmer, UK) after overnight equilibration.
(§5) A single colony of R. pomeroyi DSS-3 WT, ΔdmpXWV mutant, or complemented ΔdmpXWV mutant was inoculated into 5 ml of marine broth medium (MB) and grown overnight at 30 °C under constant shaking (170 rpm). 1 ml preculture was inoculated into 50 ml MB and grown at 30 °C with shaking (130 rpm) until an OD540 of ~0.5-0.7 was reached, then used for DMSP uptake assays.
Due to a relatively low radiochemical and mid-millimolar range molar concentration of the ^14C:^12C-DMSP stock, we could not conduct uptake kinetics experiments. Instead, we used three DMSP concentrations (50, 150, and 300 µM) and added them to 3 ml of cultures in biological triplicates. Cells were incubated at 30 °C with shaking (130 rpm) for 5 min, filtered onto 0.2 µm pore size Supor filters (∅ 25 mm, Pall Corporation, US), and washed 3x with 1 ml MB medium. Wet filters were transferred to 6 ml scintillation vials and 3 ml EcoLume Liquid Scintillation Cocktail added. After equilibration overnight, samples were measured on a Tri-Carb 2800TR liquid scintillation analyzer. […]
(§6) Bacterial cell numbers used for normalization of uptake rates were determined by flow cytometry. […] 75 to 200-fold sample dilutions in sterile TE buffer (10 mM Tris-HCl, 1 mM EDTA, pH 8.0) were counted in analytical triplicates on a CytoFLEX flow cytometer (Beckman Coulter, UK) at a flow rate of 30 µl min^-1 for 60 sec. The instrument was equipped with a 50 mW 488 nm solid-state diode laser with standard filters and the discriminator set to 525 nm (green fluorescence) (Fig. S1).

R. pomeroyi DSS-3 WT = assay: Uptake of 14C-labeled DMSP, wild-type; type: cell-based, Ruegeria pomeroyi DSS-3; details: 5 min, 30 °C, mean ± S.D. n = 3
Experimental: as §4, §5
Due to a relatively low radiochemical and mid-millimolar range molar concentration of the ^14C:^12C-DMSP stock, we could not conduct uptake kinetics experiments. Instead, we used three DMSP concentrations (50, 150, and 300 µM) and added them to 3 ml of cultures in biological triplicates. Cells were incubated at 30 °C with shaking (130 rpm) for 5 min, filtered onto 0.2 µm pore size Supor filters (∅ 25 mm, Pall Corporation, US), and washed 3x with 1 ml MB medium. Wet filters were transferred to 6 ml scintillation vials and 3 ml EcoLume Liquid Scintillation Cocktail added. After equilibration overnight, samples were measured on a Tri-Carb 2800TR liquid scintillation analyzer. Cells fixed in 2% (vol/vol) freshly prepared paraformaldehyde solution for >15 min at 4 °C in the dark prior to radioisotope addition were used for background correction. Uptake rates were normalized by cell number.
as §6

[4] = system: R. pomeroyi DSS-3 ΔdmpXWV::Gm mutant; assay: Uptake of 14C-labeled DMSP, ΔdmpXWV::Gm mutant; type: cell-based, Ruegeria pomeroyi DSS-3; details: for Uptake rate: ΔdmpXWV::Gm, 5 min, 30 °C, mean ± S.D. n = 3
Experimental: Bacterial cell numbers used for normalization of uptake rates were determined by flow cytometry [41]. 1 ml culture was fixed with a final concentration of 0.5% (vol/vol) glutaraldehyde (Electron microscopy grade, BDH, AE) for 30 min at 4 °C, snap frozen in liquid nitrogen, and stored at –80 °C. Samples were thawed at 37 °C for 5 min, stained with SYBR gold (Invitrogen, US) (final concentration 10^-4 of commercial stock) for 10 min at 60 °C in the dark. 75 to 200-fold sample dilutions in sterile TE buffer (10 mM Tris-HCl, 1 mM EDTA, pH 8.0) were counted in analytical triplicates on a CytoFLEX flow cytometer (Beckman Coulter, UK) at a flow rate of 30 µl min^-1 for 60 sec. The instrument was equipped with a 50 mW 488 nm solid-state diode laser with standard filters and the discriminator set to 525 nm (green fluorescence) (Fig. S1).

C[S+](C)CCC(=O)[O-] [DMSP, Dimethylsulfoniopropionate]
binding affinity for DMSP (in words) (RnDmpX Tyr200Phe mutant): abolished
binding affinity to DMSP (in words) [1]: does not show any binding affinity
high binding affinity for DMSP (in words) (SBP encoded by SPOA0231): did not
binding affinity for DMSP (in words) (RnDmpX Tyr200Ala mutant): abolished
Kd ([2]; 25 °C, 10 mM Tris-HCl pH 8.0, 100 mM NaCl, SPO2441 (DmpX), read-out: Dissociation constant (Kd)): 1100 nM
high binding affinity for DMSP (in words) (SBP encoded by SPO1131): did not
Kd (RnDmpX): 474 nM

C[N+](C)(C)CC(=O)O [GBT, glycine betaine]
Dissociation constant (Kd) (DmpX^7211): -
binding affinity (in words) [2]: little binding affinity
Dissociation constant (Kd) ([2]; SPO2441 (DmpX)): -

C[N+](C)(C)[O-] [TMAO, trimethylamine N-oxide]
Dissociation constant (Kd) (DmpX^7211): -
binding affinity (in words) [2]: little binding affinity
Dissociation constant (Kd) ([2]; SPO2441 (DmpX)): -

C[S+](C)CCC(=O)[O-] [^14C-DMSP, [1-^14C]DMSP]
restoration of import by complementation with dmpXWV (in words) ([3]; complemented mutant versus ΔdmpXWV::Gm): partly restore
Uptake rate ([3]; DMSP concentration 50 µM): 0.946 ± 0.299 fmol cell^-1 min^-1
Uptake rate ([3]; DMSP concentration 150 µM): 1.221 ± 0.159 fmol cell^-1 min^-1
Uptake rate ([3]; DMSP concentration 300 µM): 1.893 ± 0.084 fmol cell^-1 min^-1
Uptake rate (R. pomeroyi DSS-3 WT; DMSP concentration 50 µM): 1.852 ± 0.100 fmol cell^-1 min^-1
Uptake rate (R. pomeroyi DSS-3 WT; DMSP concentration 150 µM): 2.267 ± 0.189 fmol cell^-1 min^-1
Uptake rate (R. pomeroyi DSS-3 WT; DMSP concentration 300 µM): 3.095 ± 0.081 fmol cell^-1 min^-1
reduction of uptake in the mutant in comparison to the wild-type ([4]; 50 μM DMSP, p < 0.001): ~ 5 times
decrease of uptake in the mutant in comparison to the wild-type ([4]; 300 μM DMSP, p < 0.001): ~ 3 times
Uptake rate ([4]; DMSP concentration 50 µM): 0.522 ± 0.040 fmol cell^-1 min^-1
Uptake rate ([4]; DMSP concentration 300 µM): 1.344 ± 0.150 fmol cell^-1 min^-1

C[N+](C)(C)CC(O)CC(=O)[O-] (centres unmarked) [carnitine]
Dissociation constant (Kd) (DmpX^7211): -
binding affinity (in words) [2]: little binding affinity
Dissociation constant (Kd) ([2]; SPO2441 (DmpX)): -

C[N+](C)(C)CCO [choline]
binding affinity (in words) [2]: little binding affinity
Dissociation constant (Kd) ([2]; SPO2441 (DmpX)): -
